Measured values as given in ChEMBL document CHEMBL1141918 (Bioorg Med Chem Lett, 2005).

Key:
[1] = target: Carbonic anhydrase 5A, mitochondrial (Homo sapiens, UniProt P35218)
[2] = target: Carbonic anhydrase 4 (Homo sapiens, UniProt P22748)
[3] = target: Carbonic anhydrase 1 (Homo sapiens, UniProt P00915)
[4] = target: Carbonic anhydrase 2 (Homo sapiens, UniProt P00918)
[5] = target: Carbonic anhydrase 9 (Homo sapiens, UniProt Q16790)

Carbonic anhydrase 5A, mitochondrial, sequence (P35218 whole entry): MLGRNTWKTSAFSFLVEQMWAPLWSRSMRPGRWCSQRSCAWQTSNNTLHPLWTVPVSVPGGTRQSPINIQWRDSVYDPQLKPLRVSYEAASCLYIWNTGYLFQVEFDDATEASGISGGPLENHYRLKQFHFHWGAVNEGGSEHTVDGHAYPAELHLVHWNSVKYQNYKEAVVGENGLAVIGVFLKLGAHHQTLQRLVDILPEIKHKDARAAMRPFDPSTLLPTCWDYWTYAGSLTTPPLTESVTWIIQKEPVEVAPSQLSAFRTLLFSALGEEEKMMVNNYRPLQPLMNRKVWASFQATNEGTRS
Carbonic anhydrase 4, sequence (P22748 whole entry): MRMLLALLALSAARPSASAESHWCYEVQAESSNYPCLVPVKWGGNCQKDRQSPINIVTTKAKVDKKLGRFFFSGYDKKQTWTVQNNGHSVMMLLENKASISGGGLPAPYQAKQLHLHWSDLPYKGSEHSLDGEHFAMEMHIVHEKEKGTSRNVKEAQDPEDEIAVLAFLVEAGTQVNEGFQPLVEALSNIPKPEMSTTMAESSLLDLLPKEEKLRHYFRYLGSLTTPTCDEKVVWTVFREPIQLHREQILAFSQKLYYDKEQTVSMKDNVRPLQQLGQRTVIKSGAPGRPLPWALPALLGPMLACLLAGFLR
Carbonic anhydrase 1, sequence (P00915 whole entry): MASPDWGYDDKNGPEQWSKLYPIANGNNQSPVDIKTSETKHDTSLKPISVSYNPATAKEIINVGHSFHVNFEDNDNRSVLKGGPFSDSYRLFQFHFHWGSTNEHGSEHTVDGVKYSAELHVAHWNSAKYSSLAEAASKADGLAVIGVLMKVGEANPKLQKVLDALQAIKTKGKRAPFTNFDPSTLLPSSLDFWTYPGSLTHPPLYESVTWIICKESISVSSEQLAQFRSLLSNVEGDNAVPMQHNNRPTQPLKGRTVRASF

F[P-](F)(F)(F)(F)F.[Na+]
Ki [1]: > 300 mM | Ki [2]: 19.1 mM | Ki [3]: 11 mM | Ki [4]: 17.5 mM | Ki [5]: 8.1 mM
